Laboratory results published in patent US20090182149A1, “SALT OF SULFINYLBENZIMIDAZOLE COMPOUND, AND CRYSTAL AND AMORPHOUS FORM THEREOF” (priority 2006, published 2009).

System: gastric secretion (gastric acid output) in chronic gastrostormy tube-implanted dogs
Experiment: Gastric secretion inhibitory action in chronic gastrostormy tube-implanted dogs (histamine-stimulated)
Type: in vivo
Details: i.d., histamine i.v.; for Gastric secretion inhibitory action (%): first day, 1 h 40 min to 2 h after administration; for Gastric secretion inhibition duration (%): second day (24 hours after administration)
Procedure: Gastric Secretion Inhibitory Action in Chronic Gastrostormy Tube-Implanted Dogs
Large dogs (body weight: 14-19 kg) having chronic gastrostormy tubes implanted were used to examine the gastric secretion inhibitory action and gastric secretion inhibitory action durations of the example compounds. The experiment was conducted over a period of 2 days. On the first day, histamine (50 or 75 μg/kg/h) was continuously administered intravenously for 3 hours and gastric juice was taken every 20 minutes. One hour after starting histamine administration, the example compound suspended or dissolved in a 0.5% methylcellulose solution was administered to the duodenum through an indwelling catheter at a dose of 0.1 ml/kg. The gastric secretion inhibitory action of the example compound was examined for 2 hours thereafter. On the second day (24 hours after administration of the example compound), histamine was continuously administered intravenously for 2 hours and gastric juice was taken every 20 minutes to examine the gastric secretion inhibitory action duration. After measuring the gastric juice volume, 0.5 ml of gastric juice was sampled and subjected to neutralization titration to pH 7.0 with a 0.04 mol/l sodium hydroxide solution to measure the acid concentration. The acid concentration was multiplied by the gastric juice volume to determine the gastric acid output. The gastric secretion inhibitory action was evaluated by the gastric secretion inhibition (%) on the first day. The gastric secretion inhibitory action (%) was determined by the formula shown below. Where two or more cases were examined, the average of all the cases was determined.
Gastric secretion inhibitory action (%)=(A−B)/A×100
[A]: Gastric acid output during 20 minutes, from 40 minutes to 1 hour after start of histamine administration [B]: Gastric acid output during 20 minutes, from 1 hour and 40 minutes to 2 hours after administration of example compound
The gastric secretion inhibitory action duration was evaluated by the gastric secretion inhibition (%) on the second day. The gastric secretion inhibitory action duration (%) was determined by the formula shown below.
Gastric secretion inhibitory action duration (%)=(C−D)/C×100
[C]: Total gastric acid output from start to one hour after histamine administration on the first day [D]: Total gastric acid output from start to one hour after histamine administration on the second day

`Cc1cnc(C[S+]([O-])c2nc3ccccc3[n-]2)c(C)c1OCC1COC(C)(C)OC1.[Na+]` [Compound A, Sodium salt of (R)-2-({[4-(2,2-dimethyl-1,3-dioxan-5-yl)methoxy-3,5-dimethylpyridin-2-yl]methyl}sulfinyl)-1H-benzimidazole] was tested, and the “Gastric secretion inhibitory action (%)” value (0.1 mg/kg, average of 4 cases) was 8%, the “Gastric secretion inhibition duration (%)” value (0.1 mg/kg, 4 cases) was 6% and the “Gastric secretion inhibitory action (%)” value (0.2 mg/kg, average of 4 cases) was 65%. The “Gastric secretion inhibition duration (%)” value (0.2 mg/kg, 4 cases) was 46%, the “Gastric secretion inhibitory action (%)” value (0.4 mg/kg, average of 10 cases) was 97% and the “Gastric secretion inhibition duration (%)” value (0.4 mg/kg, 10 cases) was 77%. For the same molecule, the “Gastric secretion inhibitory action (%)” value (0.8 mg/kg, average of 8 cases) was 100% and the “Gastric secretion inhibition duration (%)” value (0.8 mg/kg, 8 cases) was 89%.
